As usually defined, the melting point is the temperature of the solid-liquid transition. The compound `CCOC(=O)C(C)(OC)C(=O)Nc1ccc(Br)cc1C` (stereo unspecified) showed a melting point of 99 to 103 °C. To `CC(=O)N1CCC2(CC1)C(=O)NC(=O)N2c1ccc(C)cc1` belongs 295 to 297 °C; to `Cc1c(NC(=O)CC(C)(C)C)c2c(c3c1C(c1ccc(C(C)C)cc1)CO3)CCCC2` (stereo unspecified), 183 to 184 °C; to `Oc1ccc(-c2nc3cccc(O)c3[nH]2)cc1C12CC3CC(CC(C3)C1)C2`, 307 to 309 °C.

As for `CCOc1cc(-c2ccccc2)nc2nn(C)cc12`, the melting point lay within 170 to 171 °C.

Consider `Cc1n[nH]c2c1C(=O)CC(c1ccccc1Cl)C2` (stereo unspecified), for which the melting point lay in the range of 168 to 170 °C. Take `CCCc1ccc(Oc2ccc3c(c2)OC(C(F)(F)F)C(C(=O)O)=C3)cc1` (stereo unspecified): the melting point lay in the range of 144 to 146 °C. Under `Cc1cccc(Cl)c1OC1CN(C(c2ccccc2)c2ccccc2)C1` stands 92 to 93 °C.

Turning to `CCOC(=O)C(CCCCCCl)=NO`, the melting point lay within 36 to 38 °C. Turning to `Cc1ccsc1-c1cncc(Br)c1`, the melting point fell in the range of 58 to 59 °C. The compound `O=C1CCC(CC(O)C(=O)OCc2ccccc2)N1` (stereo unspecified) gave a melting point of 95 to 96 °C. On to `COC(=O)CCC/C=C\CN1C(=O)c2ccccc2C1=O`, for which the melting point was 47 to 49 °C. Under `CCOC(=O)c1ccn(-c2ccc(OCC)cc2)n1` stands 88 to 90 °C; under `CC(CN1C(C)CCC1C)N1c2ccccc2Sc2ccc(C#N)cc21` (mixture of isomers), 105 °C. `O=C(O)c1cccc2c(=O)c3ccccc3[nH]c12` had a melting point of more than 300 °C. Regarding `CC(CC#N)n1nnc2cc3c(=O)n(C(C)Cn4ncnn4)nnc3cc2c1=O` (stereo unspecified), the melting point lay in the range of 105 to 108 °C.

As to `CCn1c(-c2ccc(Cl)cc2)n[nH]c1=O`, the melting point is 188 to 189 °C.

`Cc1cc([N+](=O)[O-])c(Cl)c([N+](=O)[O-])c1CBr` came in with a melting point of 115 to 120 °C. `CCCCCCCCCCCCCCCc1cc2cc(C(=O)OCCCC)ccc2[nH]1` displayed a melting point of 79 to 80 °C. As to `CS(=O)(=O)NC1Cc2ccc(C(=O)CCCCCl)cc2C1` (stereo unspecified), the melting point was 71 to 72 °C. Under `CN(C)c1ccc(/C=C/c2cc(/C=C/c3ccc4cc[nH]c4c3)[nH]n2)cc1` stands 224 to 227 °C.

Turning to `C=CCN(CC=C)CCCCC(=O)c1ccc2c(c1)Cc1cc(C(=O)CCCCN(CC=C)CC=C)ccc1O2`, the melting point was 54 to 55 °C. `CC(C)c1cc(OCCN2CCOCC2)cc2c1C(=O)N(COc1cc(=O)n3cccc(OCCCN4CCOCC4)c3n1)S2(=O)=O` showed a melting point of 145 to 150 °C. Regarding `O=C(O)COc1ccc(Cn2nnc(-c3cccc(C#CCc4ccc(F)cc4)c3)n2)cc1`, the melting point lay in the range of 158 to 160 °C.

`CN(C)C=C1CN=C(c2ccccc2Cl)c2cc(Cl)ccc2C1=O` returned a melting point of 170 to 171 °C.

`CC1(C)OC(C=Cc2ccc(Cl)c(Cl)c2)=CC1=O` yielded a melting point of 100 to 102 °C. To `COC(=O)c1ccc(OCC=C(C)CCC=C(C)C)cc1` belongs 30 to 33 °C.

Consider `O=C1c2ccccc2C(=O)N1Cc1ccc(Br)nc1`, for which the melting point lay within 130 to 131 °C. Under `CC(=O)N1CCN=C1Nc1cc(C)nn1-c1ccccc1` stands 153 to 162 °C; under `O=S(=O)(c1ccccc1)c1ccc(Cl)cn1`, 154 to 155 °C; under `Cc1cc(C)c2ncc(Br)n2n1`, 137 to 139 °C. Under `Oc1cnc2c(c1)CCC(c1ccc(Cl)c(Cl)c1)O2` (stereo unspecified) stands 218 to 219 °C; under `COc1c(N2C[C@H]3C(CF)C[C@@]3(N)C2)c(F)cc2c(=O)c(C(=O)O)cn([C@@H]3C[C@@H]3F)c12` (stereo partly specified), 122 to 125 °C. Compound `Cn1nnn(-c2c(Cl)ccc(C(=O)C3C(=O)CCCC3=O)c2Cl)c1=O` had a melting point of 138 to 140 °C.

As to `COc1c(Cc2ccccc2)ccc2ccccc12`, the melting point lay within 56 to 59 °C. Compound `CN1CCCCC1CNC(=O)Nc1cc(OCC(F)(F)F)ccc1OCC(F)(F)F` (stereo unspecified) returned a melting point of 123 to 126 °C.

The values above are taken from a melting point compilation (Tetko et al.; mined from patent text by program, amines drawn as free bases though some values may be those of a salt).
